Earlier results as cited in patent US20240180834A1, “DEVELOPMENT OF COVID-19 VACCINE USING A DUAL TLR LIGAND LIPOSOME ADJUVANT” (priority 2021, published 2024).

Details: earlier work

SMILES: CCCCCCCCCCCCCCCCCC(=O)NCCCCOn1c(CCCC)nc2c(N)nc3ccccc3c21 [3M-052, N-[4-(4-amino-2-butylimidazo[4,5-c]quinolin-1-yl)oxybutyl]octadecanamide]
- type of immune response elicited by the TLR agonist in the nanoliposome adjuvant: elicited a robust systemic Th1 response
